“Also recorded” adds a separate entry of the source.

The values below come from patent US7449480B2, “Small molecule inhibitors of HER2 expression” (Baylor College of Medicine, priority 2002, dated 2008).

Data set [1] deals with T1, ESX-Sur-2 interaction (Homo sapiens, UniProt Q9ULK4).
T1 construct: made in house
T1 sequence (Q9ULK4 352-625): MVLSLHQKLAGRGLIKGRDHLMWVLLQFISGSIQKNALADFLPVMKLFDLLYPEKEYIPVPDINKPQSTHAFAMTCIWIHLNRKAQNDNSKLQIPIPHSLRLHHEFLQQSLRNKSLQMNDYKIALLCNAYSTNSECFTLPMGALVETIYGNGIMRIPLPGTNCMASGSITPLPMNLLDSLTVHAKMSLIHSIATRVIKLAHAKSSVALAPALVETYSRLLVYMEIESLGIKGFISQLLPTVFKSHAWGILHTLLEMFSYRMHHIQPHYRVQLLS
Put plainly: Inhibition of the ESX-Sur-2 interaction in vitro (fluorescence of FITC-ESX129-145 with GST-Sur2352-625). The format is binding. The note with it: for IC50: FITC-ESX129-145 (152 nM), GST-Sur2352-625 (212 nM); for inhibition of the ESX-Sur-2 interaction in vitro (in words): in vitro fluorescence assay. The protocol: To monitor the ESX-DRIP130 interaction, we labeled ESX129-145 with fluorescein isothiocyanate (FITC; Pierce) at the Lys144 position and measured its fluorescence spectra upon adding the glutatathione-S′-transferase (GST) fusion of DRIP130352-625. ESX129-145 was synthesized by standard Fmoc chemistry (the NH2 terminus was capped by an acetyl group during the synthesis) and purified by HPLC. The peptide was then coupled with FITC at the Lys144 position in a conjugation buffer (100 mM carbonate-bicarbonate buffer, pH 9) in dark and purified by NAP-5 desalting column (Amersham). The labeled peptide was quantified by UV and visible absorbance.
GST-Sur-2352-625 was expressed and purified. Varied concentrations of the fusion protein were added to FITC-ESX129-145 (10 nM) in phosphate buffered saline containing 2% (v/v) ethanol, and the fluorescence spectra of FITC-ESX129-145 were measured by an ABI LS-50B Fluorescence Spectrometer (Ex: 490 nm). The dissociation constant of the interaction was estimated to be 12 μM through the emission perturbation at 522 nm.
To examine the effects of adamanolol on the interaction in vitro, the ethanol component of the binding buffer was replaced with an ethanolic solution of adamanolol. The fractions of FITC-ESX129-145 (10 nM) bound to 50 μM of GST-Sur-2352-625 were estimated by measuring fluorescence emission at 522 nm. ESX129-145 and pindolol were used as positive and negative controls, respectively.
In another series of derivatives (the R3 substituents in Table 1), the adamantane group of adamanolol was substituted (11a-d). […] The binding fractions were calculated on the basis of fluorescence spectra of FITC-ESX129-145 (152 nM) in presence of GST-Sur2352-625 (212 nM) and varied concentrations of each adamanolol derivative.

Data set [2] relates to SK-BR3 breast cancer cells. Nature of the data set: Cell viability assay (WST-1) in SK-BR3 breast cancer cells. The format is cell-based, human. Conditions: for IC50: Homo sapiens, SK-BR-3, 48 hrs incubation, WST-1; for ability to kill SK-BR3 cells (biological activity, in words): compared with adamanolol. The procedure:
SK-BR3 breast cancer cells were plated on 96-well plates at density of 5×10^3 cells/well and maintained for 24 hrs. The cells were then incubated with varied concentrations of each compound for 48 hrs, followed by addition of Premix WST-1 Solution (Takara). Cell viability was estimated by measuring absorbance at 450 nm after 1 hr with a SPECTRAmax microplatereader.
Background: Formazan colour is commonly taken as a measure of viable cells.

A short description of data set [3]: Solubility in neutral aqueous solution. The format is physicochemical. The protocol:
When the amino group of the handle was protonated, wrenchnolol (7b) and its aminopropyl version (7a) became soluble up to ˜1 mM in neutral aqueous solution. The high water solubility enabled NMR analysis of these molecules in a buffered aqueous solution, and their proton signals were completely assigned through a combination of NOESY, DQF-COSY, and HOHAHA data sets (Table S1).

The test system of data set [4] is Her2. Put plainly: Her2 protein expression by western blot of cell lysates. It counts as cell-based, human. The note with it: SK-BR3 cells, 7.3 μM, 24 hrs; α-tubulin not reduced; listed as adamanolol. The source says: Sur-2 is a human homolog of […] elegans Sur-2, a protein of unknown function whose mutations suppress the phenotype of an activated ras mutation (Singh et al., 1995), and it has been linked to the transcription-activating function of the adenovirus E1A protein and the Elk-1 transcription factor. […] To test this, we designed a cell-permeable peptide that binds Sur-2 (referred to as TAT-ESX129-145). The design takes advantage of the binding affinity of ESX129-145 and the cell internalization property of the 11-aa peptide derived from the HIV TAT protein. We first examined whether TAT ESX129-145 reduces endogenous expression of the Her2 gene in three Her2-overexpressing breast cancer cell lines, SK-BR-3, MDA-MB-453, and […] (FIG. 4). Cells were incubated in the presence or absence of TAT-ESX129-145, and the protein levels of Her2 were examined by Western blot analyses of normalized amounts of cell lysates.
Her2-overexpressing SK-BR3 cells were treated by 7.3 μM of adamanolol for 24 hrs, and whole cell lysates were analyzed by western blots. […]
SK-BR3 cells were treated by 7 μM of wrenchnolol for 24 hrs, and whole cell lysates were analyzed by western blots. […]
(In general: Immunoblotting shows a protein as a band on a membrane.)

The subject of data set [5] is VP16 activation domain. Nature of the data set: Transcription reporter gene assay (GAL4 fusion, SEAP), VP16 activation domain. It counts as cell-based. Conditions: HEK293Tag cells, 24 hour incubation with adamanolol. The protocol:
(§1) Mammalian expression vectors each encoding the activation domain of ESX, VP16, or NFκBp65 fused with the GAL4 DNA-binding domain were used. Each expression construct was co-transfected to HEK293Tag human kidney cells together with a reporter plasmid in which the production of secreted alkaline phosphatase (SEAP) is under control of an IL-2 promoter carrying five GAL4 binding sites. After a 24 hour incubation in the presence or absence of adamanolol, an aliquot of the culture was assayed for SEAP activity. The total amounts of transfected DNA were normalized.
(§2) mammalian expression vectors, each encoding the activation domain of ESX, VP16, or NF-κB p65 fused with the GAL4 DNA-binding domain (amino acids 1-94), were used. Each expression construct was co-transfected to HEK293Tag human kidney cells together with a reporter plasmid in which the production of secreted alkaline phosphatase (SEAP) is under control of an IL2 promoter carrying five GAL4 binding sites. After 10-hr incubation with wrenchnolol (20 μM), an aliquot of the culture was assayed for SEAP activity.

In data set [6] the test system is MDA-MB468. Put plainly: Growth and viability of Her2-negative MDA-MB468 cells. Conditions: no detectable levels of Her2; 24 hrs. It counts as cell-based, human. The protocol:
(§3) In contrast to the Her2-overexpressing cells, MDA-MB-468, a breast cancer cell line with no detectable levels of Her2, was resistant to TAT-ESX129-145 (FIGS. 5A and 5B). […] The effects of TAT-ESX129-145 on an MCF7 cell line stably transfected with the Her2 gene were examined.
(§4) The breast cancer cells were plated on 96-well plates at the density of 5×10^3 cells/well and maintained for 24 hrs. Adamanolol was added to the medium at varied concentrations and incubated for another 24 hrs. Premix WST-1 solution (Takara) was added to each well and incubated for 2 hrs. Cell viability was estimated by measuring absorbance at 450 nm with a SPECTRAmax microplate reader.

The test system of data set [7] is ESX activation domain. Put plainly: Transcription reporter gene assay (GAL4 fusion, SEAP), ESX activation domain. It counts as cell-based, human. The procedure: as §1, §2
On the technique in general: In a reporter assay the amount or activity of a reporter protein is the signal.

Data set [8] concerns Her2-positive breast cancer cell lines (SK-BR3, MDA-MB453, and MCF-7). Put plainly: Growth and viability of Her2-positive breast cancer cell lines. It counts as cell-based, human. Conditions: SK-BR3, MDA-MB453, MCF-7, 24 hrs. The protocol:
as §3, §4

Data set [9] deals with BT474 cells. Put plainly: Animal study: BT474-derived tumors in mammary fat pads of nude mice. The note with it: 20 mg/kg daily intraperitoneal, 5 consecutive days each week for two weeks. The format is in vivo. The procedure: Breast cancer cell lines derived from BT474 after one round (BT474M1) or two rounds (BT474M2) of tumorigenic selection were used. 5×10^6 cells were injected with Matrigel into mammary fat pads of nude mice. Two tumors were inoculated for each animal and each treatment group contained 5 animals. Five weeks after inoculation when the tumors were well established (about 100 mm^3 in average) the treatment started (day 0 in the figure). Each mouse received adamanolol (7QH2) at a daily dose of 20 mg/kg through intraperitoneal injection for 5 consecutive days in each week for two weeks. Tumor volumes were measured every three days. The percentile of the tumor volume related to the initial volume at day 0 was plotted for each time point. Adamanolol is a potent tumor growth inhibitor of HER-2/neu-overexpressing cancer cells in vivo.

As usually defined, the IC50 is the concentration needed to halve the response being measured. A low value points to greater potency. For the compound `CC(=O)N1CCC(C2CCN(C(=O)N(CC(O)COc3cccc4[nH]ccc34)C(C)C)CC2)CC1` (stereo not drawn) [Compound 11a], in data set [1], the IC50 was above 40 µM and the “inhibition of the ESX-Sur-2 interaction in vitro (in words)” value (from here on “inhibition of the ESX-Sur-2 interaction”) is “almost no ability to block”. In addition, in [2], the IC50 is above 100 µM and the “ability to kill SK-BR3 cells (biological activity, in words)” value (from here on “ability … (biological activity, in words)”) is “significant loss of the biological activity”.
Regarding `CC(C)(C)OC(=O)NCCCN(CC(O)COc1cccc2[nH]ccc12)C(=O)N1CCC(C2CCN(C(=O)C34CC5CC(CC(C5)C3)C4)CC2)CC1` (stereo not drawn) [Compound 4e], the IC50 was determined as 11.9 ± 0.7 µM in data set [1] and 11.7 ± 0.1 µM in data set [2].
With `Cc1ccc(S(=O)(=O)n2ccc3c(OCC(O)CN(C(=O)N4CCC(C5CCN(C(=O)C67CC8CC(CC(C8)C6)C7)CC5)CC4)C(C)C)cccc32)cc1` (stereo not drawn) [Compound 5a, N-tosyladamanolol], in data set [1], the IC50 stood at 10 ± 1 µM and the “inhibition of the ESX-Sur-2 interaction” value is “increased”. Moreover, in [2], 2.7 ± 0.3 µM corresponded to half-maximal inhibition (IC50) and the “ability … (biological activity, in words)” value was “increased the potency”.
As for `CC(C)N(CC(O)COc1cccc2c1ccn2S(=O)(=O)c1cccc2cccnc12)C(=O)N1CCC(C2CCN(C(=O)C34CC5CC(CC(C5)C3)C4)CC2)CC1` (stereo not drawn) [Compound 5b], the results for the half-maximal inhibitory concentration (IC50) in [1] and in data set [2] were 12 ± 0.9 µM and 5 ± 0.3 µM, respectively.
In general, solubility refers to the concentration that dissolves in the medium under given conditions. Regarding `Cc1ccc(S(=O)(=O)n2ccc3c(OCC(O)CN(CCCN)C(=O)N4CCC(C5CCN(C(=O)C67CC8CC(CC(C8)C6)C7)CC5)CC4)cccc32)cc1` (stereo not drawn) [Compound 7a], the IC50 stood at 10.2 ± 1.1 µM in data set [1] and 4.7 ± 0.1 µM in data set [2]. Also, the solubility in [3] was around 1000 µM.
Consider `CC(C)CN(CC(O)COc1cccc2[nH]ccc12)C(=O)N1CCC(C2CCN(C(=O)C34CC5CC(CC(C5)C3)C4)CC2)CC1` (stereo not drawn) [Compound 4b], for which the values for the half-maximal inhibitory concentration (IC50) in [1] and in data set [2] were 15.1 ± 0.8 µM and 4.1 ± 0.2 µM, respectively.
Turning to `CC(C)N(CC(O)COc1cccc2[nH]ccc12)C(=O)N1CCC(C2CCN(C(=O)C34CC5CC(CC(C5)C3)C4)CC2)CC1` (stereo not drawn) [Compound 4a, 1′-(adamantane-1-carbonyl)-[4,4′]bipiperidinyl-1-carboxylic acid [2-hydroxy-3-3-(1H-indol-4-yloxy)-propyl]-isopropyl-amide], in data set [4], the “expression of Her2 protein” value is recorded as “significantly reduced; also recorded: inhibition of Her2”. Moreover, in data set [5], the “effect on the VP16 activation domain” value was “little effects”. The “viability of MDA-MB468” value in data set [6] is “much milder effects”. Besides, the IC50 in data set [1] worked out at 15.4 ± 0.3 µM; in data set [2], 6.4 ± 1.8 µM. Further, the “inhibition of the ESX-Sur-2 interaction” value in data set [1] is “inhibits”. The “ability of the ESX activation domain to stimulate transcription” value in [7] (HEK293Tag cells, 24 hour incubation with adamanolol) is given as “impaired; also recorded: selectively inhibits”. In addition, the “viability of Her2-positive breast cancer cell lines” value is “impaired the viability” in [8] (listed as Adamanolol); “selectively impairs the cell growth and viability” in data set [8] (listed as adamanolol). Further, in data set [9], the “tumor growth (tumor volume relative to day 0)” value was “significant growth suppression”.
Take `O=C(NCC(O)COc1cccc2[nH]ccc12)N1CCC(C2CCN(C(=O)C34CC5CC(CC(C5)C3)C4)CC2)CC1` (stereo not drawn) [Compound 4d]: in data set [1], the IC50 was above 40 µM and the “inhibition of the ESX-Sur-2 interaction” value is reported as “abolished”. Besides, the “ability of the ESX activation domain to activate the reporter gene” value in [7] (HEK293 cells, 20 μM, 10-hr incubation) is “almost no effects; also recorded: little effects”. Besides, in data set [2], the concentration for half-maximal inhibition (IC50) was above 100 µM and the “ability … (biological activity, in words)” value is on record as “abolished; also recorded: little activity”.
Turning to `COCC(O)CN(C(=O)N1CCC(C2CCN(C(=O)C34CC5CC(CC(C5)C3)C4)CC2)CC1)C(C)C` (stereo not drawn) [Compound 12a], in [1], the IC50 is above 40 µM and the “inhibition of the ESX-Sur-2 interaction” value is “abolished”. In addition, in [2], the IC50 is above 100 µM and the “ability … (biological activity, in words)” value is on record as “abolished”.
